In patent US20260285888A1, “HETEROCYCLIC COMPOUND AND USE THEREOF” (OTSUKA PHARMACEUTICAL CO., LTD., priority 2023, published 2026):

Assays:
in vitro = format: cell-based, human; settings: human, differentiated hl-60 cells, 300 μmol/L, about 24 hours, PMA-differentiated HL-60 cells, LDH; no-treatment 0%, cell lysis buffer 100%; read-out: cytotoxicity (%) Evaluation compound results
Summary of the method: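 HL-60 cells differentiated ~72 h with 10 nM PMA, then exposed ~24 h to compound at 300 μmol/L final in RPMI with 2% FBS. LDH release in supernatant gave cytotoxicity % scaled between untreated (0%) and lysis-buffer (100%) groups; triplicate.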

[1] = Study for confirmation of conversion to brexpiprazole in a buffer (stability of the evaluation compounds); format: physicochemical; settings: in buffer, average of duplicate; for Concentration of brexpiprazole formed: 60-minute reaction sample; for Concentration of evaluation compound decreased: decrease in 60-minute vs 0-minute reaction sample
Summary of the method: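 Compounds (final 1 μmol/L, from 100 μmol/L working solutions) incubated in buffer at 37° C. for 0 or 60 min, in duplicate, after 3 min pre-incubation of the reaction solution. Reactions stopped with acetonitrile/isopropanol (4:1) containing internal standards; compound and formed brexpiprazole quantified against 0.01–1 μmol/L calibration samples.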

SMILES	cytotoxicity at 24 h, 300 µM (in vitro) [%]	Concentration of brexpiprazole formed [1] [nM]	Concentration of evaluation compound decreased [1] [nM]
CC(=O)OCCCCCCOP(=O)([O-])OC[N+]1(CCCCOc2ccc3ccc(=O)[nH]c3c2)CCN(c2cccc3sccc23)CC1 [EX 101, 6-acetoxyhexyl ((4-(benzo[b]thiophen-4-yl)-1-(4-((2-oxo-1,2-dihydroquinolin-7-yl)oxy)butyl)piperazin-1-ium-1-yl)methyl) phosphate]	16	0	80
CC1(C)OCC(C(=O)OCOP(=O)([O-])OC[N+]2(CCCCOc3ccc4ccc(=O)[nH]c4c3)CCN(c3cccc4sccc34)CC2)CO1 [EX 67, (4-(benzo[b]thiophen-4-yl)-1-(4-((2-oxo-1,2-dihydroquinolin-7-yl)oxy)butyl)piperazin-1-ium-1-yl)methyl (((2,2-dimethyl-1,3-dioxane-5-carbonyl)oxy)methyl) phosphate]	1	0	90
O=c1ccc2ccc(OCCCC[N+]3(COP(=O)([O-])OCCOCC4CC4)CCN(c4cccc5sccc45)CC3)cc2[nH]1 [EX 52, (4-(benzo[b]thiophen-4-yl)-1-(4-((2-oxo-1,2-dihydroquinolin-7-yl)oxy)butyl)piperazin-1-ium-1-yl)methyl (2-(cyclopropylmethoxy)ethyl) phosphate]	-1	0	-40
CC(=O)Oc1ccccc1C(=O)OCOP(=O)([O-])OC[N+]1(CCCCOc2ccc3ccc(=O)[nH]c3c2)CCN(c2cccc3sccc23)CC1 [EX 80, (2-acetoxybenzoyl)oxy)methyl ((4-(benzo[b]thiophen-4-yl)-1-(4-((2-oxo-1,2-dihydroquinolin-7-yl)oxy)butyl)piperazin-1-ium-1-yl)methyl) phosphate]	7	0	170
O=c1ccc2ccc(OCCCC[N+]3(COP(=O)([O-])OCCCOc4ccccc4)CCN(c4cccc5sccc45)CC3)cc2[nH]1 [EX 84, 4-(benzo[b]thiophen-4-yl)-1-(4-((2-oxo-1,2-dihydroquinolin-7-yl)oxy)butyl)piperazin-1-ium-1-yl)methyl (3-phenoxypropyl) phosphate]	1	0	10
Cc1ncccc1C(=O)OCOP(=O)([O-])OC[N+]1(CCCCOc2ccc3ccc(=O)[nH]c3c2)CCN(c2cccc3sccc23)CC1 [EX 81, (4-(benzo[b]thiophen-4-yl)-1-(4-(2-oxo-1,2-dihydroquinolin-7-yl)oxy)butyl)piperazin-1-ium-1-yl)methyl (((2-methylnicotinoyl)oxy)methyl) phosphate]	8	0	-30
CC(C)COP(=O)([O-])OC[N+]1(CCCCOc2ccc3ccc(=O)[nH]c3c2)CCN(c2cccc3sccc23)CC1 [EX 90, (4-(benzo[b]thiophen-4-yl)-1-(4-(2-oxo-1,2-dihydroquinolin-7-yl)oxy)butyl)piperazin-1-ium-1-yl)methyl isobutyl phosphate]	-6	0	-30
CC(C)(C)[Si](C)(C)OCCCCOP(=O)([O-])OC[N+]1(CCCCOc2ccc3ccc(=O)[nH]c3c2)CCN(c2cccc3sccc23)CC1 [EX 60, (4-(benzo[b]thiophen-4-yl)-1-(4-((2-oxo-1,2-dihydroquinolin-7-yl)oxy)butyl)piperazin-1-ium-1-yl)methyl (4-((tert-butyldimethylsilyl)oxy)butyl) phosphate]	16	0	90
O=c1ccc2ccc(OCCCC[N+]3(COP(=O)([O-])OCCCCCCl)CCN(c4cccc5sccc45)CC3)cc2[nH]1 [EX 113, (4-(benzo[b]thiophen-4-yl)-1-(4-((2-oxo-1,2-dihydroquinolin-7-yl)oxy)butyl)piperazin-1-ium-1-yl)methyl (5-chloropentyl) phosphate]	10	0	160
CCOCCOCCOCCOC(=O)OCOP(=O)([O-])OC[N+]1(CCCCOc2ccc3ccc(=O)[nH]c3c2)CCN(c2cccc3sccc23)CC1 [EX 136, (4-(benzo[b]thiophen-4-yl)-1-(4-((2-oxo-1,2-dihydroquinolin-7-yl)oxy)butyl)piperazin-1-ium-1-yl)methyl (3-oxo-2,4,7,10,13-pentaoxapentadecyl) phosphate]	-9	0	0
O=c1ccc2ccc(OCCCC[N+]3(COP(=O)([O-])OCCCCCCCCCO)CCN(c4cccc5sccc45)CC3)cc2[nH]1 [EX 46, (4-(benzo[b]thiophen-4-yl)-1-(4-((2-oxo-1,2-dihydroquinolin-7-yl)oxy)butyl)piperazin-1-ium-1-yl)methyl (9-hydroxynonyl) phosphate]	14	0	40
CCOCCOC(=O)OCOP(=O)([O-])OC[N+]1(CCCCOc2ccc3ccc(=O)[nH]c3c2)CCN(c2cccc3sccc23)CC1 [EX 132, (4-(benzo[b]thiophen-4-yl)-1-(4-((2-oxo-1,2-dihydroquinolin-7-yl)oxy)butyl)piperazin-1-ium-1-yl)methyl ((((2-ethoxyethoxy)carbonyl)oxy)methyl) phosphate]	-7	0	130
CCOCCCOP(=O)([O-])OC[N+]1(CCCCOc2ccc3ccc(=O)[nH]c3c2)CCN(c2cccc3sccc23)CC1 [EX 97, (4-(benzo[b]thiophen-4-yl)-1-(4-((2-oxo-1.2-dihydroquinolin-7-yl)oxy)butyl)piperazin-1-ium-1-yl)methyl (3-ethoxypropyl) phosphate]	-2	0	90
CCOC(=O)C1CCN(CCOP(=O)([O-])OC[N+]2(CCCCOc3ccc4ccc(=O)[nH]c4c3)CCN(c3cccc4sccc34)CC2)CC1 [EX 147, (4-(benzo[b]thiophen-4-yl)-1-(4-((2-oxo-1,2-dihydroquinolin-7-yl)oxy)butyl)piperazin-1-ium-1-yl)methyl (2-(4-(ethoxycarbonyl)piperidin-1-yl)ethyl) phosphate]	-6	0	70
O=C(OCCCCCCOP(=O)([O-])OC[N+]1(CCCCOc2ccc3ccc(=O)[nH]c3c2)CCN(c2cccc3sccc23)CC1)c1ccccc1 [EX 57, (4-(benzo[b]thiophen-4-yl)-1-(4-((2-oxo-1,2-dihydroquinolin-7-yl)oxy)butyl)piperazin-1-ium-1-yl)methyl (6-(benzoyloxy)hexyl) phosphate]	4	0	90
O=C(OCOP(=O)([O-])OC[N+]1(CCCCOc2ccc3ccc(=O)[nH]c3c2)CCN(c2cccc3sccc23)CC1)OC1CCOCC1 [EX 141, (4-(benzo[b]thiophen-4-yl)-1-(4-((2-oxo-1,2-dihydroquinolin-7-yl)oxy)butyl)piperazin-1-ium-1-yl)methyl (((((tetrahydro-2H-pyran-4-yl)oxy)carbonyl)oxy)methyl) phosphate]	19	0	20
CCOC(=O)CNP(=O)([O-])OC[N+]1(CCCCOc2ccc3ccc(=O)[nH]c3c2)CCN(c2cccc3sccc23)CC1 [EX 154, (4-(benzo[b]thiophen-4-yl)-1-(4-((2-oxo-1,2-dihydroquinolin-7-yl)oxy)butyl)piperazin-1-ium-1-yl)methyl (2-ethoxy-2-oxoethyl)phosphoramidate]	4	0	20
CCOC(=O)[C@H](C)OP(=O)([O-])OC[N+]1(CCCCOc2ccc3ccc(=O)[nH]c3c2)CCN(c2cccc3sccc23)CC1 [EX 104, (S)-(4-(benzo[b]thiophen-4-yl)-1-(4-((2-oxo-1,2-dihydroquinolin-7-yl)oxy)butyl)piperazin-1-ium-1-yl)methyl (1-ethoxy-1-oxopropan-2-yl) phosphate]	-5	0	200
COCCC(=O)OCOP(=O)([O-])OC[N+]1(CCCCOc2ccc3ccc(=O)[nH]c3c2)CCN(c2cccc3sccc23)CC1 [EX 28, (4-(benzo[b]thiophen-4-yl)-1-(4-((2-oxo-1,2-dihydroquinolin-7-yl)oxy)butyl)piperazin-1-ium-1-yl)methyl (((3-methoxypropanoyl)oxy)methyl) phosphate]	-8	-10	-70
COCCOCCOCCOC(=O)OCOP(=O)([O-])OC[N+]1(CCCCOc2ccc3ccc(=O)[nH]c3c2)CCN(c2cccc3sccc23)CC1 [EX 35, (4-(benzo[b]thiophen-4-yl)-1-(4-((2-oxo-1,2-dihydroquinolin-7-yl)oxy)butyl)piperazin-1-ium-1-yl)methyl (3-oxo-2,4,7,10,13-pentaoxatetradecyl) phosphate]	-9	0	-20
